For 31 compounds, IC50 results are on record in US20150031668A1, “CHROMAN DERIVATIVES AS TRPM8 INHIBITORS” (AMGEN INC., priority 2013, published 2015).

This test has as its target T1, human TRPM8 (Homo sapiens, UniProt Q7Z2W7).
T1 construct: expressed in transfected cells; host or cells: Chinese hamster ovary (CHO) cells, T-REx tetracycline-inducible expression system (Invitrogen); co-transfected with pcDNA3.1 aequorin
As to the kind of experiment: Luminescence readout assay for measuring intracellular calcium (aequorin, CHO cells expressing human TRPM8; icilin, L-menthol or cold activation). To be noted: CHO cells expressing human TRPM8, icilin activation (1 μM), aequorin luminescence; read-out: hTRPM8 IC50. The test is classed as cell-based. The essentials: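 Activation was by 1 μM icilin, 100 μM L-menthol (test compound 2.5 min ahead) or cold buffer below 10° C (compound 1 min ahead). Calcium rise measured as aequorin luminescence in CHO cells with tetracycline-inducible human TRPM8.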

T1 sequence (Q7Z2W7 whole entry): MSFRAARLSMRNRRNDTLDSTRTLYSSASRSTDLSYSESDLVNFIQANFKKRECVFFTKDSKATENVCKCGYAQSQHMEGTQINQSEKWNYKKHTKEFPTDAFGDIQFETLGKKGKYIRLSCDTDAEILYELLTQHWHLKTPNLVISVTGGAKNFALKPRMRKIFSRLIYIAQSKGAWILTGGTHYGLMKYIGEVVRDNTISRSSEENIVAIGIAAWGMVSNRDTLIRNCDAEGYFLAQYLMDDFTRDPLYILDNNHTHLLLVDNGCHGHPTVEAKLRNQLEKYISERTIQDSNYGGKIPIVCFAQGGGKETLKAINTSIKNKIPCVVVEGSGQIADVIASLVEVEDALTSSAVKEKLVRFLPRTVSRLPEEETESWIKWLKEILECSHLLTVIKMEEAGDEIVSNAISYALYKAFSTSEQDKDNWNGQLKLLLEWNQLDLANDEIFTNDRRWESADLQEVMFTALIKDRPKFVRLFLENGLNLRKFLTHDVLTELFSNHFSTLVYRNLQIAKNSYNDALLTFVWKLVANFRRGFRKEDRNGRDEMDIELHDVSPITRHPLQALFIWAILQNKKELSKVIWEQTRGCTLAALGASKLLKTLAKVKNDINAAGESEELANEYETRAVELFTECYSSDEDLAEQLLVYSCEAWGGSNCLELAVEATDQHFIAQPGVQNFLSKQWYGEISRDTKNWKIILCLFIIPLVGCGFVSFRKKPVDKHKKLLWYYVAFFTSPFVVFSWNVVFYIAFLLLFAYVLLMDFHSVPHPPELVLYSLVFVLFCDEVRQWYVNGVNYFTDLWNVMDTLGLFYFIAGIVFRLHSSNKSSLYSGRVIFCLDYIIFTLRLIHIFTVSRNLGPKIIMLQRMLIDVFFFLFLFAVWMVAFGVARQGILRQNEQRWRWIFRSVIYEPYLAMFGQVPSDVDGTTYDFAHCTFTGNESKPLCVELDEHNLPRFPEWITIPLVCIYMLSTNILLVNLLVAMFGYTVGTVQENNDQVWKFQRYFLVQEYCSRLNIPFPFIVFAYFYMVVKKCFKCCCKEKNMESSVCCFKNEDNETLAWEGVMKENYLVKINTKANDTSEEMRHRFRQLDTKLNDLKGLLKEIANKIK

Take `CS(=O)(=O)Nc1ccc(C(=O)N[C@]2(c3ccc(OC(F)(F)F)c(F)c3)CCOc3cccnc32)nc1` [Example 65, (S)—N-(4-(3-fluoro-4-(trifluoromethoxy)phenyl)-3,4-dihydro-2H-pyrano[3,2-b]pyridin-4-yl)-5-(methylsulfonamido)picolinamide]: the IC50 is 12 nM.
Next, `O=C(Nc1ccc(F)nc1)N[C@]1(c2ccc(OC(F)(F)F)c(F)c2)CCOc2cccnc21` [Example 66, (S)-1-(4-(3-fluoro-4-(trifluoromethoxy)phenyl)-3,4-dihydro-2H-pyrano[3,2-b]pyridin-4-yl)-3-(6-fluoropyridin-3-yl)urea 2,2,2-trifluoroacetate]: 17 nM; `C[C@H](NC(=O)N[C@]1(c2ccc(C(F)(F)F)cc2)CCOc2cccnc21)C(F)(F)F` [Example 67, 1-((S)-4-(4-(trifluoromethyl)phenyl)-3,4-dihydro-2H-pyrano[3,2-b]pyridin-4-yl)-3-((S)-1,1,1-trifluoropropan-2-yl)urea 2,2,2-trifluoroacetate]: 293 nM.
Next, `N#Cc1ccc(NC(=O)N[C@]2(c3ccc(OC(F)(F)F)c(F)c3)CCOc3cccnc32)cc1` [Example 68, (S)-1-(4-cyanophenyl)-3-(4-(3-fluoro-4-(trifluoromethoxy)phenyl)-3,4-dihydro-2H-pyrano[3,2-b]pyridin-4-yl)urea]: 23 nM.
The same measure for `O=C(Nc1ccc(Cl)nc1)N[C@]1(c2ccc(OC(F)(F)F)c(F)c2)CCOc2cccnc21` [Example 69, (S)-1-(6-chloropyridin-3-yl)-3-(4-(3-fluoro-4-(trifluoromethoxy)phenyl)-3,4-dihydro-2H-pyrano[3,2-b]pyridin-4-yl)urea]: 36 nM; for `O=C(Nc1cccnc1)NC1(c2ccc(C(F)(F)F)cc2)CCOc2ccccc21` (stereo not shown) [Example 70, 1-(pyridin-3-yl)-3-(4-(4-(trifluoromethyl)phenyl)chroman-4-yl)urea]: 1350 nM; for `O=C(Nc1cccnc1)NC1(c2ccc(C(F)(F)F)cc2)CCCc2cccnc21` (stereo not shown) [Example 71, 1-(pyridin-3-yl)-3-(8-(4-(trifluoromethyl)phenyl)-5,6,7,8-tetrahydroquinolin-8-yl)urea]: 143 nM.
As for `O=C(Nc1cccc(F)c1)N[C@]1(c2ccc(C(F)(F)F)cc2)CCOc2cccnc21` [Example 72, (S)-1-(3-fluorophenyl)-3-(4-(4-(trifluoromethyl)phenyl)-3,4-dihydro-2H-pyrano[3,2-b]pyridin-4-yl)urea], the IC50 was 112 nM.
Next, `O=C(Nc1cccnc1)N[C@]1(c2ccc(C(F)(F)F)cc2)CCOc2cccnc21` [Example 73, (S)-1-(pyridin-3-yl)-3-(4-(4-(trifluoromethyl)phenyl)-3,4-dihydro-2H-pyrano[3,2-b]pyridin-4-yl)urea]: 19 nM; `O=C(Nc1ccc(F)cc1)N[C@]1(c2ccc(C(F)(F)F)cc2)CCOc2cccnc21` [Example 74, (S)-1-(4-fluorophenyl)-3-(4-(4-(trifluoromethyl)phenyl)-3,4-dihydro-2H-pyrano[3,2-b]pyridin-4-yl)urea]: 25 nM.
With `O=S(=O)(N[C@]1(c2ccc(OC(F)(F)F)c(F)c2)CCOc2cccnc21)c1ccccc1` [Example 76, (S)—N-(4-(3-fluoro-4-(trifluoromethoxy)phenyl)-3,4-dihydro-2H-pyrano[3,2-b]pyridin-4-yl)benzenesulfonamide 2,2,2-trifluoroacetate], the IC50 stood at 206 nM.
The same measure for `O=S(=O)(N[C@]1(c2ccc(OC(F)(F)F)c(F)c2)CCOc2cccnc21)c1cccnc1` [Example 77, (S)—N-(4-(3-fluoro-4-(trifluoromethoxy)phenyl)-3,4-dihydro-2H-pyrano[3,2-b]pyridin-4-yl)pyridine-3-sulfonamide 2,2,2-trifluoroacetate]: 1340 nM; for `CC(C)(C)OC(=O)N[C@]1(c2ccc(OC(F)(F)F)c(F)c2)CCOc2cccnc21` [Example 78, (S)-tert-butyl (4-(3-fluoro-4-(trifluoromethoxy)phenyl)-3,4-dihydro-2H-pyrano[3,2-b]pyridin-4-yl)carbamate]: 58 nM.
The same measure for `Cn1cc(C(=O)NC2(c3ccc(C(F)(F)F)cc3)CCOc3cccnc32)ccc1=O` (stereo not shown) [Example 79, 1-methyl-6-oxo-N-(4-(4-(trifluoromethyl)phenyl)-3,4-dihydro-2H-pyrano[3,2-b]pyridin-4-yl)-1,6-dihydropyridine-3-carboxamide]: 334 nM.
The same measure for `O=C(NC1(c2ccc(C(F)(F)F)cc2)CCOc2cccnc21)c1ccc2c(c1)CNC2=O` (stereo not shown) [Example 80, 1-oxo-N-(4-(4-(trifluoromethyl)phenyl)-3,4-dihydro-2H-pyrano[3,2-b]pyridin-4-yl)isoindoline-5-carboxamide]: 21 nM; for `O=C(N[C@]1(c2ccc3ccccc3c2)CCOc2cccnc21)c1ccc(=O)[nH]c1` [Example 81, (S)-N-(4-(naphthalen-2-yl)-3,4-dihydro-2H-pyrano[3,2-b]pyridin-4-yl)-6-oxo-1,6-dihydropyridine-3-carboxamide]: 124 nM.
In the case of `O=C(Nc1cnccn1)N[C@]1(c2ccc(OC(F)(F)F)c(F)c2)CCOc2cccnc21` [Example 82, (S)-1-(4-(3-fluoro-4-(trifluoromethoxy)phenyl)-3,4-dihydro-2H-pyrano[3,2-b]pyridin-4-yl)-3-(pyrazin-2-yl)urea], the IC50 was determined as 134 nM.
The same measure for `COC(=O)c1ccc(NC(=O)N[C@]2(c3ccc(OC(F)(F)F)c(F)c3)CCOc3cccnc32)nc1` [Example 84, (S)-methyl 6-(3-(4-(3-fluoro-4-(trifluoromethoxy)phenyl)-3,4-dihydro-2H-pyrano[3,2-b]pyridin-4-yl)ureido)nicotinate]: 266 nM; for `COC(=O)c1ccccc1NC(=O)N[C@]1(c2ccc(OC(F)(F)F)c(F)c2)CCOc2cccnc21` [Example 86, (S)-methyl 2-(3-(4-(3-fluoro-4-(trifluoromethoxy)phenyl)-3,4-dihydro-2H-pyrano[3,2-b]pyridin-4-yl)ureido)benzoate]: 19 nM; for `COC(=O)c1ccc(NC(=O)N[C@]2(c3ccc(OC(F)(F)F)c(F)c3)CCOc3cccnc32)cn1` [Example 87, (S)-methyl 5-(3-(4-(3-fluoro-4-(trifluoromethoxy)phenyl)-3,4-dihydro-2H-pyrano[3,2-b]pyridin-4-yl)ureido)picolinate]: 24 nM.
Next, `O=C(Nc1ccc(Br)nc1)N[C@]1(c2ccc(OC(F)(F)F)c(F)c2)CCOc2cccnc21` [Example 88, (S)-1-(6-bromopyridin-3-yl)-3-(4-(3-fluoro-4-(trifluoromethoxy)phenyl)-3,4-dihydro-2H-pyrano[3,2-b]pyridin-4-yl)urea]: 115 nM.
Next, `O=C(Nc1ccncn1)N[C@]1(c2ccc(OC(F)(F)F)c(F)c2)CCOc2cccnc21` [Example 89, (S)-1-(4-(3-fluoro-4-(trifluoromethoxy)phenyl)-3,4-dihydro-2H-pyrano[3,2-b]pyridin-4-yl)-3-(pyrimidin-4-yl)urea]: 58 nM; `COC(=O)c1ccc(NC(=O)N[C@]2(c3ccc(OC(F)(F)F)c(F)c3)CCOc3cccnc32)cc1` [Example 90, (S)-methyl 4-(3-(4-(3-fluoro-4-(trifluoromethoxy)phenyl)-3,4-dihydro-2H-pyrano[3,2-b]pyridin-4-yl)ureido)benzoate]: 36 nM; `COC(=O)c1cccc(NC(=O)N[C@]2(c3ccc(OC(F)(F)F)c(F)c3)CCOc3cccnc32)c1` [Example 91, (S)-methyl 3-(3-(4-(3-fluoro-4-(trifluoromethoxy)phenyl)-3,4-dihydro-2H-pyrano[3,2-b]pyridin-4-yl)ureido)benzoate]: 19 nM.
As to `O=C(Nc1cccnc1)N[C@]1(c2ccc(OC(F)(F)F)c(F)c2)CCOc2cccnc21` [Example 92, (S)-1-(4-(3-fluoro-4-(trifluoromethoxy)phenyl)-3,4-dihydro-2H-pyrano[3,2-b]pyridin-4-yl)-3-(pyridin-3-yl)urea], the IC50 worked out at 54 nM.
Next, `O=C(Nc1cccnc1Br)N[C@]1(c2ccc(OC(F)(F)F)c(F)c2)CCOc2cccnc21` [Example 93, (S)-1-(2-bromopyridin-3-yl)-3-(4-(3-fluoro-4-(trifluoromethoxy)phenyl)-3,4-dihydro-2H-pyrano[3,2-b]pyridin-4-yl)urea]: 22 nM; `O=C(Nc1cnccc1Br)N[C@]1(c2ccc(OC(F)(F)F)c(F)c2)CCOc2cccnc21` [Example 94, (S)-1-(4-bromopyridin-3-yl)-3-(4-(3-fluoro-4-(trifluoromethoxy)phenyl)-3,4-dihydro-2H-pyrano[3,2-b]pyridin-4-yl)urea]: 230 nM.
Next, `O=C(Nc1ccccn1)N[C@]1(c2ccc(OC(F)(F)F)c(F)c2)CCOc2cccnc21` [Example 95, (S)-1-(4-(3-fluoro-4-(trifluoromethoxy)phenyl)-3,4-dihydro-2H-pyrano[3,2-b]pyridin-4-yl)-3-(pyridin-2-yl)urea]: 94 nM.
The same measure for `O=C(Nc1ccncc1)N[C@]1(c2ccc(OC(F)(F)F)c(F)c2)CCOc2cccnc21` [Example 96, (S)-1-(4-(3-fluoro-4-(trifluoromethoxy)phenyl)-3,4-dihydro-2H-pyrano[3,2-b]pyridin-4-yl)-3-(pyridin-4-yl)urea]: 6 nM; for `O=C(Nc1cc(F)c(O)c(F)c1)N[C@]1(c2ccc(OC(F)(F)F)c(F)c2)CCOc2cccnc21` [Example 97, (S)-1-(3,5-difluoro-4-hydroxyphenyl)-3-(4-(3-fluoro-4-(trifluoromethoxy)phenyl)-3,4-dihydro-2H-pyrano[3,2-b]pyridin-4-yl)urea]: 159 nM; for `O=C(N[C@]1(c2ccc(OC(F)(F)F)c(F)c2)CCOc2cccnc21)N1CCCCC1` [Example 98, (S)-N-(4-(3-fluoro-4-(trifluoromethoxy)phenyl)-3,4-dihydro-2H-pyrano[3,2-b]pyridin-4-yl)piperidine-1-carboxamide]: 23 nM.

Usually IC50 stands for the midpoint of a concentration-inhibition curve.
